The source of these data is ChEMBL document CHEMBL5385895, “Design, synthesis, biological evaluation of urea substituted 1,2,5-oxadiazole-3-carboximidamides as novel indoleamine 2,3-dioxygenase-1 (IDO1) inhibitors” (Eur J Med Chem, 2023).

SMILES strings stand for the structures. Active and inactive are the calls of the source. The calls are words filed in the database; no cut-off is given here.

The target in assay [1] is T1, Indoleamine 2,3-dioxygenase 2 (Homo sapiens) (UniProt Q6ZQW0).
T1 sequence (whole entry): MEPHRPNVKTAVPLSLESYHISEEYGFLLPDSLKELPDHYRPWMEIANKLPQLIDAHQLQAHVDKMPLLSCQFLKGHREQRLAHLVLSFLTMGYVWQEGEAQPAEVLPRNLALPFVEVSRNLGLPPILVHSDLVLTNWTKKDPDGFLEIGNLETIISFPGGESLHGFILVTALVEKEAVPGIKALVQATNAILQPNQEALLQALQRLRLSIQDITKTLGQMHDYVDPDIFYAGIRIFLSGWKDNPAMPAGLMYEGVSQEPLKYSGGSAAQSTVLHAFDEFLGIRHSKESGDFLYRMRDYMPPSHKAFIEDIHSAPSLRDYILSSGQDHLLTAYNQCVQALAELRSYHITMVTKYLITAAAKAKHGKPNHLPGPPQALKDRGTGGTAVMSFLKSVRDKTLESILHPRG
In words: Inhibition of human recombinant IDO2 assessed as reduction in N-formylkynurenine formation using L-tryptophan as substrate at 1 uM preincubated for 30 mins followed by substrate addition and measured after 20 mins by SpectraMax microplate reader analysis. The note with it: time 50.0 min.

The target in assay [2] is T2, Indoleamine 2,3-dioxygenase 1 (Homo sapiens, UniProt P14902). Put plainly: Inhibition of human recombinant IDO1 assessed as reduction in N-formylkynurenine formation using L-tryptophan as substrate preincubated for 30 mins followed by substrate addition and measured after 20 mins by SpectraMax microplate reader analysis.
T2 sequence (P14902 whole entry): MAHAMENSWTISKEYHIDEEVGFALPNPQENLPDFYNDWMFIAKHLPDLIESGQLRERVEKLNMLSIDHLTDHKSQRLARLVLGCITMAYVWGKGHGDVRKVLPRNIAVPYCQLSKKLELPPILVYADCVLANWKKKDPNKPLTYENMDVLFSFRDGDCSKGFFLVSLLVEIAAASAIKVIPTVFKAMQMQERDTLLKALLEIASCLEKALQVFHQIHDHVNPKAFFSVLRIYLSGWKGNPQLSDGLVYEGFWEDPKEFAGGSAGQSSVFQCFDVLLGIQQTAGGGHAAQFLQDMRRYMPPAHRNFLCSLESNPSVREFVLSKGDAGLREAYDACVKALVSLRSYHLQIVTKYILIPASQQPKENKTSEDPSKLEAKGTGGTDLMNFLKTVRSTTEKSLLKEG
The target of assay [3] is Tryptophan 2,3-dioxygenase (Homo sapiens) (UniProt P48775). In words: Inhibition of human recombinant TDO assessed as reduction in N-formylkynurenine formation using L-tryptophan as substrate at 1 uM preincubated for 30 mins followed by substrate addition and measured after 20 mins by SpectraMax microplate reader analysis. The note with it: time 50.0 min.
Sequence of Tryptophan 2,3-dioxygenase (Homo sapiens) (P48775 whole entry, looked up): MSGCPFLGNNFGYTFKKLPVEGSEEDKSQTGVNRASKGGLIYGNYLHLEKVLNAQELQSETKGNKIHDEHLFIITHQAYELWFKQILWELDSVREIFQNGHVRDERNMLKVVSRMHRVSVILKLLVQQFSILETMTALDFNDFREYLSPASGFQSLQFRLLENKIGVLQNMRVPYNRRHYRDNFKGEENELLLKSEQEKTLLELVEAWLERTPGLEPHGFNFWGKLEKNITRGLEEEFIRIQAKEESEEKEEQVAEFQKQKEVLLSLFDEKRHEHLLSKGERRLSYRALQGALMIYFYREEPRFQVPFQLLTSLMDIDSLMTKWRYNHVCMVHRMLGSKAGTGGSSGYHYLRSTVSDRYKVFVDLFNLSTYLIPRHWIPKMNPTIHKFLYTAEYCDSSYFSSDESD
Assay [4] concerns the target T2, Indoleamine 2,3-dioxygenase 1. Put plainly: Inhibition of IDO1 in IFN-gamma-induced human HeLa cells assessed as reduction in N-formylkynurenine formation using L-tryptophan as substrate preincubated for 24 hrs followed by substrate addition and measured after 30 mins by SpectraMax microplate reader analysis. In kind it is cell-based.
For a further assay, the system named is CT26. In words: cells. The note with it: Mus musculus, CT26, 24 h.
Another assay can be described thus: cells. The note with it: Mus musculus, Lung cancer cell line, 24 h.
Another assay has as its system HCT-116. In words: cells. Particulars: Homo sapiens, HCT-116, 24 h.
In another assay the test system is HeLa. In words: cells. The note with it: Homo sapiens, 24 h.

For `O=C(Nc1nonc1/C(=N/O)Nc1ccc(F)c(Br)c1)NC1CCC1`, the inhibition result in assay [1] and in assay [3] was “inactive” each time. Also, the IC50 (usually the concentration that inhibits the measured activity by half) in assay [2] came out at 166 nM; in assay [4], 31.7 nM.
On to `O=C(Nc1nonc1/C(=N/O)Nc1ccc(F)c(Br)c1)N1CCC(O)C1` (centres undefined), for which the inhibition entry in assay [1] and in assay [3] was “inactive” throughout. Moreover, the IC50 in assay [2] was more than 1000 nM.
As for `O=C(Nc1nonc1/C(=N/O)Nc1ccc(F)c(Br)c1)N1CCC1`, the inhibition result in assay [1] and in assay [3] was “inactive” in each case. In addition, the IC50 in assay [2] stood at 632 nM.
Consider `CCCNC(=O)Nc1nonc1/C(=N/O)Nc1ccc(F)c(Br)c1`, for which the inhibition result in assay [1] and in assay [3] was “inactive” each time. In addition, the values for the IC50 in assay [2] and in assay [4] were 222 nM and 92.3 nM, respectively.
For `O=C(Nc1nonc1/C(=N/O)Nc1ccc(F)c(Br)c1)N1CCCCC1`, the inhibition entry in assay [1] and in assay [3] was “inactive” in each case. In assay [2], the IC50 is more than 1000 nM.
Regarding `COc1ccccc1NC(=O)Nc1nonc1/C(=N/O)Nc1ccc(F)c(Br)c1`, the inhibition entry in assay [1] and in assay [3] was “inactive” each time. The IC50 in assay [2] is 298 nM.
Regarding `COc1ccc(NC(=O)Nc2nonc2/C(=N/O)Nc2ccc(F)c(Br)c2)cc1OC`, the inhibition entry in assay [1] and in assay [3] was “inactive” throughout. Moreover, the IC50 in assay [2] amounted to 331 nM.
For `O=C(NCC1CC1)Nc1nonc1/C(=N/O)Nc1ccc(F)c(Br)c1`, the inhibition entry in assay [1] and in assay [3] was “inactive” in each case. In addition, the IC50 with CT26 is more than 80000 nM; in assay [2], 77 nM; in the assay “cells”, more than 50000 nM; in assay [4] it was 30.2 nM; in the assay with HCT-116, 55100 nM; in the assay with HeLa, 54300 nM.
With `O=C(Nc1ccc(Br)cc1)Nc1nonc1/C(=N/O)Nc1ccc(F)c(Br)c1`, the inhibition result in assay [1] and in assay [3] was “inactive” throughout. The IC50 in assay [2] was 224 nM; in assay [4], 68.7 nM.
As to `O=C(Nc1ccc(F)cc1)Nc1nonc1/C(=N/O)Nc1ccc(F)c(Br)c1`, the inhibition result in assay [1] and in assay [3] was “inactive” in each case. Moreover, the values for the IC50 in assay [2] and in assay [4] were 208 nM and 51.7 nM, respectively.
For `O=C(NCC1CCCCC1)Nc1nonc1/C(=N/O)Nc1ccc(F)c(Br)c1`, the inhibition entry in assay [1] and in assay [3] was “inactive” in each case. For the same compound, the IC50 in assay [2] worked out at 847 nM.
For `O=C(Nc1ccccc1)Nc1nonc1/C(=N/O)Nc1ccc(F)c(Br)c1`, the inhibition entry in assay [1] and in assay [3] was “inactive” throughout. Further, the IC50 was 197 nM in assay [2] and 49.5 nM in assay [4].
Turning to `O=C(Nc1ccc(Cl)cc1)Nc1nonc1/C(=N/O)Nc1ccc(F)c(Br)c1`, the inhibition entry in assay [1] and in assay [3] was “inactive” in each case. Besides, the IC50 in assay [2] turned out to be 311 nM.
With `NCCCCNC(=O)Nc1nonc1/C(=N/O)Nc1ccc(F)c(Br)c1`, the inhibition result in assay [1] and in assay [3] was “inactive” each time. Moreover, the concentration for half-maximal inhibition (IC50) in assay [2] was more than 1000 nM.
Turning to `O=C(Nc1nonc1/C(=N/O)Nc1ccc(F)c(Br)c1)NC1CC1`, the inhibition result in assay [1] and in assay [3] was “inactive” in each case. In addition, the IC50 in assay [2] came out at 79.3 nM; in assay [4] it was 36.5 nM.
Turning to `COc1ccc(NC(=O)Nc2nonc2/C(=N/O)Nc2ccc(F)c(Br)c2)cc1`, the inhibition result in assay [1] and in assay [3] was “inactive” throughout. In addition, the IC50 in assay [2] stood at 148 nM; in assay [4], 43.7 nM.
In the case of `CC(C)NC(=O)Nc1nonc1/C(=N/O)Nc1ccc(F)c(Br)c1`, the inhibition entry in assay [1] and in assay [3] was “inactive” throughout. Further, the IC50 in assay [2] amounted to 82.6 nM; in assay [4], 58.2 nM.
Take `CCCCNC(=O)Nc1nonc1/C(=N/O)Nc1ccc(F)c(Br)c1`: the inhibition entry in assay [1] and in assay [3] was “inactive” throughout. In addition, the IC50 in assay [2] was 159 nM; in assay [4], 103 nM.
Take `NCCCNC(=O)Nc1nonc1/C(=N/O)Nc1ccc(F)c(Br)c1`: the inhibition result in assay [1] and in assay [3] was “inactive” in each case. The IC50 in assay [2] is more than 1000 nM.
For the compound `CN(C)C(=O)Nc1nonc1/C(=N/O)Nc1ccc(F)c(Br)c1`, the inhibition entry in assay [1] and in assay [3] was “inactive” in each case. For the same compound, the IC50 in assay [2] stood at 347 nM.
As to `CNC(=O)Nc1nonc1/C(=N/O)Nc1ccc(F)c(Br)c1`, the inhibition entry in assay [1] and in assay [3] was “inactive” each time. Further, the IC50 in assay [2] was 118 nM; in assay [4], 44.6 nM.
`O=C(Nc1nonc1/C(=N/O)Nc1ccc(F)c(Br)c1)NC1CCCC1`: the inhibition entry in assay [1] and in assay [3] was “inactive” in each case. Also, the IC50 in assay [2] was found to be 314 nM.
Turning to `NCCNC(=O)Nc1nonc1/C(=N/O)Nc1ccc(F)c(Br)c1`, the inhibition entry in assay [1] and in assay [3] was “inactive” each time. In addition, the IC50 in assay [2] was more than 1000 nM.
`COCCCNC(=O)Nc1nonc1/C(=N/O)Nc1ccc(F)c(Br)c1`: the inhibition result in assay [1] and in assay [3] was “inactive” throughout. Also, the IC50 in assay [2] was more than 1000 nM.
Regarding `COc1cccc(NC(=O)Nc2nonc2/C(=N/O)Nc2ccc(F)c(Br)c2)c1`, the inhibition result in assay [1] and in assay [3] was “inactive” each time. Moreover, the IC50 in assay [2] was 183 nM; in assay [4], 111 nM.
For `O=C(Nc1nonc1/C(=N/O)Nc1ccc(F)c(Br)c1)NC1CCCCC1`, the inhibition result in assay [1] and in assay [3] was “inactive” throughout. Also, the IC50 in assay [2] stood at 544 nM.
Turning to `O=C(NCCO)Nc1nonc1/C(=N/O)Nc1ccc(F)c(Br)c1`, the inhibition entry in assay [1] and in assay [3] was “inactive” throughout. Further, the IC50 in assay [2] was more than 1000 nM.
Turning to `CC(C)CNC(=O)Nc1nonc1/C(=N/O)Nc1ccc(F)c(Br)c1`, the inhibition result in assay [1] and in assay [3] was “inactive” in each case. Further, the values for the half-maximal inhibitory concentration (IC50) in assay [2] and in assay [4] were 96.3 nM and 41.7 nM, respectively.
For `CN1CCN(C(=O)Nc2nonc2/C(=N/O)Nc2ccc(F)c(Br)c2)CC1`, the inhibition result in assay [1] and in assay [3] was “inactive” each time. Further, the IC50 in assay [2] worked out at 612 nM.
For `CN(C)CCNC(=O)Nc1nonc1/C(=N/O)Nc1ccc(F)c(Br)c1`, the inhibition result in assay [1] and in assay [3] was “inactive” each time. The IC50 in assay [2] is more than 1000 nM.
For the compound `O=C(NCC1CCC1)Nc1nonc1/C(=N/O)Nc1ccc(F)c(Br)c1`, the inhibition entry in assay [1] and in assay [3] was “inactive” each time. The IC50 turned out to be 109 nM in assay [2] and 41.1 nM in assay [4].
`O=C(Nc1nonc1/C(=N/O)Nc1ccc(F)c(Br)c1)N1CCCC1`: the inhibition entry in assay [1] and in assay [3] was “inactive” throughout. Moreover, the IC50 in assay [2] is more than 1000 nM.
